# From patent publication US20150352137A1, “THYMIDINE FOR PREVENTING NEURAL TUBE DEFECTS” (priority 2012, published 2015)
# Legend:
# [1] = tested on: curly tail mice; settings: female, mouse, in vivo
# Description: Experimental litters were generated by overnight mating with the day of finding a copulation plug designated embryonic day (E) 0.5. Maternal supplementation was performed daily from E7.5-10.5.
# Treatments were: control (water only), thymidine+adenine, thymidine+hypoxanthine, thymidine+GMP, thymidine only, adenine only (all reagents from Sigma). GMP was used instead of guanine owing to solubility considerations in preparing solutions for injection. Animal studies were carried out under regulations of the Animals (Scientific Procedures) Act 1986 of the UK Government, and in according with guidance issued by the Medical Research Council, UK in Responsibility in the Use of Animals for Medical Research (July 1993).
# Collection of Embryos Litters were dissected from the uterus, at E11.5-13.5, in Dulbecco's Modified Eagle's Medium containing 10% fetal calf serum and assessed for presence of neural tube defects (NTDs) under a light microscope. Any resorptions were recorded. Crown-rump length was measured using an eyepiece graticule.
# In order to evaluate potential effects of treatment on litter size or embryonic viability, the number of embryos in each litter was recorded together with the presence of dead or resorbed embryos.
# [2] = tested on: curly tail (ct/ct) embryos; assay: Frequency of spina bifida, tail flexion defects and straight tails in curly tail embryos after maternal supplementation; assay type: in vivo, mouse; settings: for frequency of spina bifida compared with controls: maternal i.p. 20 mg/kg each reagent daily E7.5-10.5, embryos scored E11.5-13.5; for frequency of spina bifida compared with controls / frequency of straight-tailed (unaffected) embryos compared with controls: z-test; for frequency of straight-tailed (unaffected) embryos compared with controls: all embryos
# From the text: The curly tail (ct) mouse is considered a useful model for NTDs owing to a number of characteristics that resemble the corresponding defects in humans. These include a multifactorial etiology (with effects of both genetic and environmental factors), location of spina bifida lesions at the lumbosacral level, the presence of elevated alpha-fetoprotein in the amniotic fluid and a female excess among exencephalic embryos. […] The closure defects in ct/ct embryos are a mechanical consequence of excessive ventral curvature of the caudal region of the embryo. This, in turn, results from a dorso-ventral growth imbalance caused by a diminished cellular proliferation rate in the hindgut endoderm. In addition to spina bifida, cranial NTDs (exencephaly) also occur at low frequency among curly tail embryos (approximately 5%), but the cellular basis for these defects is not known. Curly tail mice were maintained as a closed random-bred colony as described in Van […] et al (Anat Embryol 2001 203: 225-237). […] Any resorptions were recorded. Crown-rump length was measured using an eyepiece graticule. Statistical analysis was carried out using SigmaStat (version 3.5; Systat Software Inc). Proportions were compared by z-test. Comparisons of mean values were made by […] or by One Way ANOVA with pairwise analysis by Holm-Sidak test. Embryos removed from pregnant females at E11.5-13.5 were scored for the outcome of low spinal neurulation as: normal (ST, straight tail), tail flexion defect (CT, curled tail), or open spina bifida which was always associated with a tail flexion defect (SB plus CT). Tail flexion defects arise when closure of the neural tube is delayed but does ultimately occur.
# [3] = tested on: curly tail embryos; assay: Frequency of exencephaly (cranial NTDs) among curly tail embryos after maternal supplementation; assay type: in vivo, mouse; settings: maternal i.p. 20 mg/kg each reagent daily E7.5-10.5; controls 6.8%
# Description: The closure defects in ct/ct embryos are a mechanical consequence of excessive ventral curvature of the caudal region of the embryo. This, in turn, results from a dorso-ventral growth imbalance caused by a diminished cellular proliferation rate in the hindgut endoderm. In addition to spina bifida, cranial NTDs (exencephaly) also occur at low frequency among curly tail embryos (approximately 5%), but the cellular basis for these defects is not known. […] Any resorptions were recorded. Crown-rump length was measured using an eyepiece graticule. The frequency of exencephaly (cranial NTDs) among genetically predisposed curly tail embryos was also assessed. The frequency of exencephaly was 6.8% among embryos from control litters. There was a trend towards diminished frequency of exencephaly among embryos treated with thymidine and adenine, thymidine and GMP, or thymidine only, compared with controls (3.0%, 2.5% and 2.7% respectively, see FIG. 4).
# [4] = tested on: genomic DNA; assay: Incorporation of tritiated nucleotide precursors into genomic DNA in embryo culture; parameters: species or system mouse; settings: embryos cultured E9.5-10.5, mean ± SEM, n = 3
# Description: Embryos were explanted at E9.5 and cultured for 24 hours in rat serum as described previously (Cockroft, In: Copp […], editors. Postimplantation Mammalian Embryos: A Practical Approach. Oxford: […] DNA concentration was determined by NanoDrop.
# [5] = tested on: neural tube defects; settings: cited from earlier work
# [6] = tested on: ct/ct embryos; settings: supplementation; cited from earlier work
smiles,measurement,setting,value
"Nc1ncnc2nc[nH]c12 [Ade only, adenine]",Mean litter size,[1],7.5 ± 0.7
same,Resorption per litter,[1],0.8 ± 0.3
same,frequency of spina bifida compared with controls,[2],no effect
"Cc1cn([C@H]2C[C@H](O)[C@@H](CO)O2)c(=O)[nH]c1=O [Thy only, thymidine]",Mean litter size,[1],7.4 ± 0.8
same,Resorption per litter,[1],0.9 ± 0.4
same,frequency of straight-tailed (unaffected) embryos compared with controls,[2]; listed as Thy,significantly higher
same,frequency of straight-tailed (unaffected) embryos compared with controls,[2]; listed as thymidine only,higher frequency
same,"proportion of unaffected, straight tail embryos within litter compared with controls","[2]; litter-by-litter analysis, One Way ANOVA",not statistically significant
same,frequency of spina bifida compared with controls,[2]; 20 mg/kg,trend towards reduced spina bifida frequency
same,frequency of spina bifida compared with controls,"[2]; listed as thymidine alone, 20 mg/kg",trend towards reduced frequency
same,frequency of exencephaly,[3],2.7%
Nc1ncnc2nc[nH]c12 [[^3H]-adenine],[^3H] incorporation into genomic DNA,"[4]; 37,000 Bq/ml, 0.036 nmol/ml",40.0 ± 6.6 cpm/μg
same,[^3H] incorporation into genomic DNA,"[4]; 74,000 Bq/ml, 0.07 nmol/ml",82.8 ± 6.7 cpm/μg
Cc1cn([C@H]2C[C@H](O)[C@@H](CO)O2)c(=O)[nH]c1=O [[^3H]-thymidine],[^3H] incorporation into genomic DNA,"[4]; 37,000 Bq/ml, 0.07 nmol/ml",898.4 ± 98.0 cpm/μg
Nc1nc2ncc(CNc3ccc(C(=O)N[C@@H](CCC(=O)O)C(=O)O)cc3)nc2c(=O)[nH]1 [folic acid],reduction of NTD recurrence risk,"[5]; 5 mg/day, women with a previous affected pregnancy",~70%
same,reduction in the prevalence of NTDs,"[5]; USA, fortification of bread flour",26%
same,NTDs not preventable by maternal treatment,"[5]; human, in vivo",30-50%
same,NTD recurrences prevented,"[5]; randomised clinical trials, administered early in pregnancy",up to 70%
same,prevention of NTDs in ct/ct embryos,[6],not preventable
